According to patent US12144874B2, “Synthesis and composition of photodynamic therapeutic agents for the targeted treatment of cancer” (On Target Laboratories, LLC, priority 2015, dated 2024):
“Also recorded” adds a separate entry of the source. Like-named read-outs stand apart in the source and are kept apart here.

Key:
[1] = tested on: subcutaneous KB tumor; assay: In vivo PDT efficacy on growth of subcutaneous KB tumor xenograft in nude mice
Procedure: The growth of the tumor was monitored (images were taken) and tumor volume was measured using caliper.
In the following examples, the in vivo efficacy of the compounds is determined using KB tumor cell xenograft in nude mice. In these studies, KB cells were implanted subcutaneously and growth of the tumors was monitored. […] Moreover, once tumors grow to […], the compounds were injected via tail vein. […] In vivo efficacy of BPheid-a was evaluated by monitoring reduction of tumor volume.
KB cells that overexpressed folate receptor were implanted subcutaneously into female nude mice and allowed to grow to ˜50 mm^3 prior to initiation of treatment with 50 nmol of BPheid-a (1). […] In vivo efficacy of BPheid-a was evaluated by monitoring reduction of tumor volume.

[2] = tested on: KB cells
[3] = tested on: KB cells; assay: cells; conditions: Homo sapiens
[4] = dogs; cited from earlier work
[5] = tested on: folate receptor positive cancer; conditions: cited from earlier work
[6] = rats; cited from earlier work
[7] = Activation wavelength of non-targeted PDT agents; assay type: physicochemical; conditions: Table 1
[8] = tested on: KB tumors; assay: Time dependent whole body fluorescence imaging of KB tumor bearing nude mice (IVIS imager); assay type: in vivo
Description: FIG. 3 depicts an overlay of half body (top raw) and whole body (bottom raw) fluorescence image over white light images after adjusting the threshold. KB tumor bearing mice injected with 10 nmol of BPheid-a (1) and image with IVIS imager (ex=745 nm, em=ICG, exposure time=1 s) at different time intervals.
FIG. 13 depicts an overlay of whole body fluorescence image over white light images after adjusting the threshold. KB tumor bearing mice injected with 10 nmol of 65a and image with IVIS imager (ex=745 nm, em=ICG, exposure time=1 s) at different time intervals.
In the following examples, the in vivo efficacy of the compounds is determined using KB tumor cell xenograft in nude mice. In these studies, KB cells were implanted subcutaneously and growth of the tumors was monitored. For time dependent whole body imaging, once tumors become 250-350 mm^3, the compounds were injected via tail vein and accumulation of the PS in the tumor was monitored (over 48 hours) using fluorescence imaging using IVIS imager. Moreover, once tumors grow to […], the compounds were injected via tail vein. Three hours (3 h) after injecting with the compound, tumor was treated with laser beam (75 mW/cm^2, 137 J/cm^2, exposure diameter=7.5-8 mm) for […]. In vivo efficacy of BPheid-a was evaluated by monitoring reduction of tumor volume.

[9] = tested on: subcutaneous KB tumor; assay: In vivo PDT efficacy on growth of subcutaneous KB tumor xenograft in nude mice; conditions: 25 nmol dose, laser 75 mW/cm^2, 137 J/cm^2, 38 min, 3 h after injection
[10] = 50 nmol dose, laser 75 mW/cm^2, 137 J/cm^2, 38 min, 3 h after injection
[11] = 10 nmol injected, KB tumor bearing nude mice
[12] = Table 1, non-targeted PDT agents, free drugs in DMSO, 2 h incubation, laser 6 mW/cm^2, 12 J/cm^2, 32 min, then 24 h

CC[C@H]1c2cc3[nH]c4c(c3C)C(=O)C(C(=O)OC)c4c3nc(cc4[nH]c(cc(n2)[C@@H]1C)c(C(C)=O)c4C)[C@@H](C)[C@@H]3CCC(=O)NC(CC(=O)NC1C(O)OC(CO)C(O)C1O)C(=O)NNC(=O)OCCSSC[C@H](NC(=O)[C@H](CC(=O)NCCS(=O)(=O)O)NC(=O)CC[C@H](NC(=O)c1ccc(NCc2cnc3nc(N)[nH]c(=O)c3n2)cc1)C(=O)O)C(=O)O (stereo partly shown) [Compound 92a]
Effect on growth of subcutaneous KB tumor, in words [1, 10]: completely reduced the tumor
Activity class on KB cancer cells in culture (active / highly active) [2]: active
EC50 ([2]; 2 h): 32.8 nM

CC[C@H]1c2cc3[nH]c(c(CC(=O)OC)c4nc(cc5[nH]c(cc(n2)[C@@H]1C)c(C(C)=O)c5C)[C@@H](C)[C@@H]4CCC(=O)NCCC[C@H](NC(=O)CC[P+](c1ccccc1)(c1ccccc1)c1ccccc1)C(=O)OC(C)(C)C)c(C(=O)N[N+](C)(C)C)c3C [Compound 15]
EC50 [3]: 47.6 nM

OTL38
Toxicity [4]: no toxicity
Malignant lesions removed with the aid of OTL38 versus without it ([5]; clinical trial, image-guided surgery): approximately 5 ×
Tumor cells removed by OTL38-guided resection ([5]; image-guided resection): approximately 95%
Toxicity [6]: no toxicity

Photofrin [Compound 7]
Activation Wavelength [7]: 630 nm

CC[C@H]1c2cc3[nH]c4c(c3C)C(=O)C(C(=O)OC)c4c3nc(cc4[nH]c(cc(n2)[C@@H]1C)c(C(C)=O)c4C)[C@@H](C)[C@@H]3CCC(=O)NC(Cc1ccc(N(CCCl)CCCl)cc1)C(=O)NNC(=O)OCCSSC[C@H](NC(=O)[C@H](CC(=O)NCCS(=O)(=O)O)NC(=O)CC[C@H](NC(=O)c1ccc(NCc2cnc3nc(N)[nH]c(=O)c3n2)cc1)C(=O)O)C(=O)O (stereo partly shown) [Compound 112a]
EC50 ([2]; Table 12, folate-targeted releasable BPheid-a, miscellaneous): 0.5 nM
Fluorescence in the tumor (level or comparison with other conjugates) [8, 11]: more highly fluorescent
Tumor specificity / uptake in other tissues (whole body images) [8, 11]: highly specific for FR-positive tumors
Localization in whole body images ([8]; 10 nmol, image 2 h after administering): localized mainly in the tumor

CC[C@H]1c2cc3[nH]c4c(c3C)C(=O)[C@H](C(=O)OC)c4c3nc(cc4[nH]c(cc(n2)[C@@H]1C)c(C(C)=O)c4C)[C@@H](C)[C@@H]3CCC(=O)O [Compound 1, Bacteriopheophorbide-a, reference compound]
Effect on growth of subcutaneous KB tumor, in words [1, 10]: some effect
KB tumor doubling time after treatment ([1]; 50 nmol, laser 75 mW/cm^2, 137 J/cm^2, 38 min, 3 h after injection): < 1 week
Tumor volume reached by the end of the two week treatment period ([1]; 50 nmol, laser 38 min 3 h after injection): > 600 mm^3
EC50 [2, 12]: 745 nM
EC50 ([2]; Table 2, mitochondrial-targeted modified PDT agents, free drugs in DMSO, 2 h incubation, laser 32 min, then 24 h): 745 nM
IC50 ([2]; Table 3, nucleus-targeted modified PDT agents, free drugs in DMSO, 2 h incubation, laser 32 min, then 24 h): 745 nM
EC50 ([2]; Table 7, folate-targeted releasable BPheid-a conjugates, different soluble linkers): 745 nM
EC50 ([2]; Table 9, folate conjugates releasing cationic BPheid-a analogues): 745 nM
EC50 ([2]; Table 11, folate conjugates releasing anionic BPheid-a analogues): 745 nM
Fluorescence in the tumor (level or comparison with other conjugates) [8, 11]: very low
Tumor specificity / uptake in other tissues (whole body images) [8, 11]: nonspecific uptake of BPheid-a in the skin
Time to localize / accumulate in the tumor after administration ([8]; 10 nmol injected, KB tumor bearing nude mice, fluorescence imaging): ~24 h
Activation Wavelength [7]: 750 nm

CC[C@H]1c2cc3[nH]c4c(c3C)C(=O)C(C(=O)OC)c4c3nc(cc4[nH]c(cc(n2)[C@@H]1C)c(C(C)=O)c4C)[C@@H](C)[C@@H]3CCC(=O)NNC(=O)OCCSSC[C@H](NC(=O)CCOCCOCCOCCOCCOCCOCCNC(=O)CC[C@H](NC(=O)c1ccc(NCc2cnc3nc(N)[nH]c(=O)c3n2)cc1)C(=O)O)C(=O)O (single isomer, unassigned) [Compound 76b]
Effect on growth of subcutaneous KB tumor, in words [1, 10]: less active in mice as compared to 76a and 76c; also recorded: completely cured with no recurrence during the monitored time (3 weeks)
EC50 ([2]; 2 h): 320 nM

tookad soluble [Compound 4, reference compound]
EC50 [2, 12]: 7760 nM
Activation Wavelength [7]: 750 nm

CC[C@H]1c2cc3[n-]c4c(c3C)C(=O)[C@H](C(=O)OC)c4c3nc(cc4[n-]c(cc(n2)[C@@H]1C)c(C(C)=O)c4C)[C@@H](C)[C@@H]3CCC(=O)O.[Pd+2] [Compound 2, Tookad, reference compound]
EC50 [2, 12]: 10400 nM
Activation Wavelength [7]: 760 nm

CC[C@H]1c2cc3[nH]c4c(c3C)C(=O)C(C(=O)OC)c4c3nc(cc4[nH]c(cc(n2)[C@@H]1C)c(C(C)=O)c4C)[C@@H](C)[C@@H]3CCC(=O)NNC(=O)OCCSSC[C@H](NC(=O)[C@H](CC(=O)NCCS(=O)(=O)O)NC(=O)CC[C@H](NC(=O)c1ccc(NCc2cnc3nc(N)[nH]c(=O)c3n2)cc1)C(=O)O)C(=O)O (stereo partly shown) [Compound 65a]
Effect on growth of subcutaneous KB tumor, in words [1, 10]: completely cured with no recurrence during the monitored time (13 weeks)
Effect on growth of subcutaneous KB tumor, in words ([1]; 50 and 25 nmol doses, laser 38 min 3 h after injection): tumor regression at both doses (50 and 25 nmol)
Effect on growth of subcutaneous KB tumor, in words [9]: completely cured with no recurrence during the monitored time (4 weeks)

Visudyne [Compound 5, reference compound]
EC50 [2, 12]: 838 nM
Activation Wavelength [7]: 689 nm
